# Measured values reported in US20220332699A1 (SAGE THERAPEUTICS, INC., priority 2019, published 2022).
# Molecular target: CYP46A1 (Homo sapiens, UniProt Q9Y6A2)
# Test: CYP46A1 Enzyme Assay 2 (testosterone substrate, HPLC-MS)
# Format: biochemical
# Conditions: read-out: IC50 (CYP46A1 inhibitory activity)
# How it was run: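 CYP46A1 (5 μM final) with testosterone ([…] final) preincubated with compound 30 min at 37° C, reaction started with NADPH-generating system and run 15 min at 37° C. Quenched in methanol containing diclofenac internal standard; product read by HPLC-MS.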
# Chain of CYP46A1 (Q9Y6A2 whole entry): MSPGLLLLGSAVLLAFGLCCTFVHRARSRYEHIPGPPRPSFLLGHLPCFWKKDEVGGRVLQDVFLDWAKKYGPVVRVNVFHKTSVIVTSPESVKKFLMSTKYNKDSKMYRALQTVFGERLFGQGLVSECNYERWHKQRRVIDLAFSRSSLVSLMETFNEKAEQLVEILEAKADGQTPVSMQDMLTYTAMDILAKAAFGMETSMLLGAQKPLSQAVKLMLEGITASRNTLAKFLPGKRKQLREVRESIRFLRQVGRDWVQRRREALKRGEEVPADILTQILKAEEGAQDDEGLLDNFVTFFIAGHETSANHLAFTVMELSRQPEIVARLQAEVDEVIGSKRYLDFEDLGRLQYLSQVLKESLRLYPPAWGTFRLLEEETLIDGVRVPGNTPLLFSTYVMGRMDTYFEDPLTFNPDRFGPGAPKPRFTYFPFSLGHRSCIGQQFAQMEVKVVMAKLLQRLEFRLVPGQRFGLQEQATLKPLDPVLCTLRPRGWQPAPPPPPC
row,Compound,IC50 [nM]
1,"N#C[C@]1(Cc2ccc(F)cc2)CCN(C(=O)c2cccnc2-c2ccncn2)C1 [Compound A235, (R)-3-(4-fluorobenzyl)-1-(2-(pyrimidin-4-yl)nicotinoyl)pyrrolidine-3-carbonitrile]",> 1000
2,"N#CC1(Cc2cc(F)ccc2F)CCN(C(=O)c2cccnc2-c2ccncn2)CC1 [Compound A261, 4-(2,5-difluorobenzyl)-1-(2-(pyrimidin-4-yl)nicotinoyl)piperidine-4-carbonitrile]",< 100
3,"N#CC1(Cc2ccc(Cl)cc2F)CCN(C(=O)c2cccnc2-c2ccncn2)CC1 [Compound A205, 4-(4-chloro-2-fluorobenzyl)-1-(2-(pyrimidin-4-yl)nicotinoyl)piperidine-4-carbonitrile]",< 100
4,"C[C@@H](c1ccc(C(F)(F)F)cc1)C1(C#N)CCN(C(=O)c2cccnc2-c2ccncn2)CC1 [Compound A250, (S)-1-(2-(pyrimidin-4-yl)nicotinoyl)-4-(1-(4-(trifluoromethyl)phenyl)ethyl)piperidine-4-carbonitrile]",< 100
5,"N#CC1(Cc2ccccc2Cl)CCN(C(=O)c2cccnc2-c2ccncc2)CC1 [Compound A21, 1-([2,4′-bipyridine]-3-carbonyl)-4-(2-chlorobenzyl)piperidine-4-carbonitrile]",< 100
6,"N#CC1(Cc2cnc(C(F)(F)F)nc2)CCN(C(=O)c2cccnc2-c2ccncn2)CC1 [Compound A239, 1-(2-(pyrimidin-4-yl)nicotinoyl)-4-((2-(trifluoromethyl)pyrimidin-5-yl)methyl)piperidine-4-carbonitrile]",> 1000
7,"Cc1ccc(CC2(C#N)CCN(C(=O)c3cccnc3-c3ccncn3)CC2)cc1 [Compound A35, 4-(4-methylbenzyl)-1-(2-(pyrimidin-4-yl)nicotinoyl)piperidine-4-carbonitrile]",< 100
8,"C[C@H](c1c(F)cccc1F)C1(C#N)CCN(C(=O)c2cccnc2-c2ccncc2)CC1 [Compound A245, (S)-1-([2,4′-bipyridine]-3-carbonyl)-4-(1-(2,6-difluorophenyl)ethyl)piperidine-4-carbonitrile]",< 100
9,"N#CC1(Cc2ccc(F)cc2C2CC2)CCN(C(=O)c2cccnc2-c2ccncn2)CC1 [Compound A230, 4-(2-cyclopropyl-4-fluorobenzyl)-1-(2-(pyrimidin-4-yl)nicotinoyl)piperidine-4-carbonitrile]",< 100
10,"N#CC1(CCc2ccccc2)CCN(C(=O)c2cccnc2-c2ccncc2)CC1 [Compound A68, 1-([2,4′-bipyridine]-3-carbonyl)-4-phenethylpiperidine-4-carbonitrile]",100 to 1000
11,"COc1ccc(CC2(C#N)CCN(C(=O)c3cccnc3-c3ccncn3)CC2)cc1 [Compound A63, 4-(4-methoxybenzyl)-1-(2-(pyrimidin-4-yl)nicotinoyl)piperidine-4-carbonitrile]",< 100
12,"N#CC1(Cc2c(F)cc(F)cc2F)CCN(C(=O)c2cccnc2-c2ccncn2)CC1 [Compound A263, 1-(2-(pyrimidin-4-yl)nicotinoyl)-4-(2,4,6-trifluorobenzyl)piperidine-4-carbonitrile]",< 100
13,"CC(c1ccc(C(F)(F)F)cc1)C1(C#N)CCN(C(=O)c2cccnc2-c2ccncc2)CC1 (stereo in doubt) [Compound A268, (R)-1-([2,4′-bipyridine]-3-carbonyl)-4-(1-(4-(trifluoromethyl)phenyl)ethyl)piperidine-4-carbonitrile]",< 100
14,"N#CC1(Cc2ccc(C(F)(F)F)cc2F)CCN(C(=O)c2cccnc2-c2ccncn2)CC1 [Compound A240, 4-(2-fluoro-4-(trifluoromethyl)benzyl)-1-(2-(pyrimidin-4-yl)nicotinoyl)piperidine-4-carbonitrile]",< 100
15,"N#CC1(Cc2ccc(Cl)cc2C2CC2)CCN(C(=O)c2cccnc2-c2ccncn2)CC1 [Compound A231, 4-(4-chloro-2-cyclopropylbenzyl)-1-(2-(pyrimidin-4-yl)nicotinoyl)piperidine-4-carbonitrile]",< 100
16,"N#CC1(CC2CCOCC2)CCN(C(=O)c2cccnc2-c2ccncn2)CC1 [Compound A48, 1-(2-(pyrimidin-4-yl)nicotinoyl)-4-((tetrahydro-2H-pyran-4-yl)methyl)piperidine-4-carbonitrile]",100 to 1000
17,"C[C@@H](c1ccc(F)cc1F)C1(C#N)CCN(C(=O)c2cccnc2-c2ccncc2)CC1 [Compound A238, (R)-1-([2,4′-bipyridine]-3-carbonyl)-4-(1-(2,4-difluorophenyl)ethyl)piperidine-4-carbonitrile]",< 100
18,"N#CC1(Cc2cc(F)cc(F)c2)CCN(C(=O)c2cccnc2-c2ccncn2)CC1 [Compound A213, 4-(3,5-difluorobenzyl)-1-(2-(pyrimidin-4-yl)nicotinoyl)piperidine-4-carbonitrile]",< 100
19,"C[C@H](c1ccc(F)cc1F)C1(C#N)CCN(C(=O)c2cccnc2-c2ccncn2)CC1 [Compound A241, (S)-4-(1-(2,4-difluorophenyl)ethyl)-1-(2-(pyrimidin-4-yl)nicotinoyl)piperidine-4-carbonitrile]",< 100

row,Compound,IC50 [nM]
1,"C[C@H](c1c(F)cccc1F)C1(C#N)CCN(C(=O)c2cccnc2-c2ccncn2)CC1 [Compound A243, (S)-4-(1-(2,6-difluorophenyl)ethyl)-1-(2-(pyrimidin-4-yl)nicotinoyl)piperidine-4-carbonitrile]",< 100
2,"N#CC1(Cc2ccc(F)cc2)CCN(C(=O)c2ccccc2-c2ccncn2)CC1 [Compound A229, 4-(4-fluorobenzyl)-1-(2-(pyrimidin-4-yl)benzoyl)piperidine-4-carbonitrile]",< 100
3,"N#CC1(Cc2ccc(OC(F)(F)F)cc2)CCN(C(=O)c2cccnc2-c2ccncn2)CC1 [Compound A217, 1-(2-(pyrimidin-4-yl)nicotinoyl)-4-(4-(trifluoromethoxy)benzyl)piperidine-4-carbonitrile]",< 100
4,"C[C@@H](c1ccc(F)cc1)C1(C#N)CCN(C(=O)c2cccnc2-c2ccncn2)CC1 [Compound A44, (S)-4-(1-(4-fluorophenyl)ethyl)-1-(2-(pyrimidin-4-yl)nicotinoyl)piperidine-4-carbonitrile]",< 100
5,"N#CC1(Cc2ccc(C(F)(F)F)cc2F)CCN(C(=O)c2cccnc2-c2ccncc2)CC1 [Compound A255, 1-([2,4′-bipyridine]-3-carbonyl)-4-(2-fluoro-4-(trifluoromethyl)benzyl)piperidine-4-carbonitrile]",< 100
6,"N#CC1(Cc2cccc(F)c2F)CCN(C(=O)c2cccnc2-c2ccncn2)CC1 [Compound A209, 4-(2,3-difluorobenzyl)-1-(2-(pyrimidin-4-yl)nicotinoyl)piperidine-4-carbonitrile]",< 100
7,"Cc1ccc(CC2(C#N)CCN(C(=O)c3cccnc3-c3ccncn3)CC2)cn1 [Compound A201, 4-((6-methylpyridin-3-yl)methyl)-1-(2-(pyrimidin-4-yl)nicotinoyl)piperidine-4-carbonitrile]",< 100
8,"N#CC1(Cc2cccc(Cl)c2)CCN(C(=O)c2cccnc2-c2ccncn2)CC1 [Compound A210, 4-(3-chlorobenzyl)-1-(2-(pyrimidin-4-yl)nicotinoyl)piperidine-4-carbonitrile]",< 100
9,"N#CC1(Cc2ccc(Cl)cc2F)CCN(C(=O)c2cccnc2-c2ccncc2)CC1 [Compound A11, 1-{[2,4′-bipyridine]-3-carbonyl}-4-[(4-chloro-2-fluorophenyl)methyl]piperidine-4-carbonitrile]",< 100
10,"N#CC1(Cc2ccc(F)cc2)CCN(C(=O)c2cccnc2-c2cncnc2)CC1 [Compound A66, 4-(4-fluorobenzyl)-1-(2-(pyrimidin-5-yl)nicotinoyl)piperidine-4-carbonitrile]",100 to 1000
11,"N#CC1(Cc2cccc(C(F)(F)F)c2F)CCN(C(=O)c2cccnc2-c2ccncn2)CC1 [Compound A265, 4-(2-fluoro-3-(trifluoromethyl)benzyl)-1-(2-(pyrimidin-4-yl)nicotinoyl)piperidine-4-carbonitrile]",< 100
12,"N#C[C@@]1(Cc2ccc(F)cc2)C[C@H]2CC[C@@H](C1)N2C(=O)c1cccnc1-c1ccncn1 [Compound A252, (1R,3r,5S)-3-(4-fluorobenzyl)-8-(2-(pyrimidin-4-yl)nicotinoyl)-8-azabicyclo[3.2.1]octane-3-carbonitrile]",100 to 1000
13,"C[C@@H](c1ccc(C(F)(F)F)cc1F)C1(C#N)CCN(C(=O)c2cccnc2-c2ccncn2)CC1 [Compound A286, (R)-4-(1-(2-fluoro-4-(trifluoromethyl)phenyl)ethyl)-1-(2-(pyrimidin-4-yl)nicotinoyl)piperidine-4-carbonitrile]",< 100
14,"N#Cc1ccc(CC2(C#N)CCN(C(=O)c3cccnc3-c3ccncc3)CC2)cc1 [Compound A27, 1-([2,4′-bipyridine]-3-carbonyl)-4-(4-cyanobenzyl)piperidine-4-carbonitrile]",< 100
15,"CC(c1cc(F)cc(F)c1)C1(C#N)CCN(C(=O)c2cccnc2-c2ccncn2)CC1 (stereo in doubt) [Compound A258, (R)-4-(1-(3,5-difluorophenyl)ethyl)-1-(2-(pyrimidin-4-yl)nicotinoyl)piperidine-4-carbonitrile]",< 100
16,"C[C@@H](c1c(F)cccc1F)C1(C#N)CCN(C(=O)c2cccnc2-c2ccncc2)CC1 [Compound A246, (R)-1-([2,4′-bipyridine]-3-carbonyl)-4-(1-(2,6-difluorophenyl)ethyl)piperidine-4-carbonitrile]",< 100
17,"CC(c1c(F)cc(F)cc1F)C1(C#N)CCN(C(=O)c2cccnc2-c2ccncn2)CC1 (stereo in doubt) [Compound A270, (S)-1-(2-(pyrimidin-4-yl)nicotinoyl)-4-(1-(2,4,6-trifluorophenyl)ethyl)piperidine-4-carbonitrile]",< 100
18,"N#CC1(Cc2ccc(C(F)(F)F)cn2)CCN(C(=O)c2cccnc2-c2ccncn2)CC1 [Compound A228, 1-(2-(pyrimidin-4-yl)nicotinoyl)-4-((5-(trifluoromethyl)pyridin-2-yl)methyl)piperidine-4-carbonitrile]",100 to 1000
